The species entered for assay [1] is Oryctolagus cuniculus. Briefly: Selectivity ratio of IC50 for rabbit skeletal muscle PP2A catalytic subunit to IC50 for rabbit skeletal muscle PP1 catalytic subunit.
Assay [2] can be described thus: Inhibition of rabbit skeletal muscle PP2A catalytic subunit using [32P]-phosphorylase alpha as substrate pretreated for 10 mins followed by substrate addition. Set-up: species or system Oryctolagus cuniculus.
Assay [3] is described as follows: Inhibition of rabbit skeletal muscle PP1 catalytic subunit using [32P]-phosphorylase alpha as substrate pretreated for 10 mins followed by substrate addition. Also on record: species or system Oryctolagus cuniculus.
The target in assay [4] is Serine/threonine-protein phosphatase PP1-alpha catalytic subunit (Homo sapiens, UniProt P62136). Briefly: Inhibition of recombinant PP1alpha catalytic subunit (unknown origin) using DIFMUP as substrate pretreated for 10 mins followed by substrate addition measured every 15 secs for 30 mins by fluorescence assay.
Serine/threonine-protein phosphatase PP1-alpha catalytic subunit, sequence (P62136 whole entry, canonical isoform): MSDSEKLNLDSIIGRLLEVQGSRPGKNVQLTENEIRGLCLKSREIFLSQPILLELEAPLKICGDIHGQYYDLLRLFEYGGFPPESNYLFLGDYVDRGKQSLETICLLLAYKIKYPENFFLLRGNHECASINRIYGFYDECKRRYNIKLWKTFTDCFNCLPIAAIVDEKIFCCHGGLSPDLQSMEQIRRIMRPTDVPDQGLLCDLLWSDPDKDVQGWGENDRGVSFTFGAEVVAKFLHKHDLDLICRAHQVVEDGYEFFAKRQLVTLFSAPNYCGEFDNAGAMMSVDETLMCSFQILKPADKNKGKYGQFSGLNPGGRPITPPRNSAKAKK
For assay [5], the target named is Serine/threonine-protein phosphatase 2A catalytic subunit alpha isoform (Homo sapiens, UniProt P67775). Briefly: Inhibition of recombinant human PP2A catalytic subunit L309 deletion mutant using DIFMUP as substrate pretreated for 10 mins followed by substrate addition measured every 15 secs for 30 mins by fluorescence assay.
Serine/threonine-protein phosphatase 2A catalytic subunit alpha isoform, sequence (P67775 whole entry, looked up, canonical isoform): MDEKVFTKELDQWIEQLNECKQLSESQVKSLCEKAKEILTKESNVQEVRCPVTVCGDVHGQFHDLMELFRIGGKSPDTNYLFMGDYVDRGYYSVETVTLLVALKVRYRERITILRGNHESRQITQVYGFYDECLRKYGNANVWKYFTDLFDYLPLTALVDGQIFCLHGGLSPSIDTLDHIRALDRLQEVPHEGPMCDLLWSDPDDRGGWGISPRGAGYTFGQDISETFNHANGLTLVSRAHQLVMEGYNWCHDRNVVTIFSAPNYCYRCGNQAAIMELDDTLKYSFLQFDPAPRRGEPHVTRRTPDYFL

This is an account of results in ChEMBL document CHEMBL4184150, “Microcystins: Synthesis and structure-activity relationship studies toward PP1 and PP2A” (Bioorg Med Chem, 2018).

In the case of `C=C1C(=O)N[C@H](C)C(=O)N[C@@H](CC2CCCCC2)C(=O)N[C@@H](C(=O)O)[C@H](C)C(=O)N[C@@H](C)C(=O)N[C@@H](/C=C/C(C)=C/[C@H](C)[C@H](Cc2ccccc2)OC)[C@H](C)C(=O)N[C@@H](C(=O)O)CCC(=O)N1C`, the Ratio IC50 in assay [1] was found to be 7. For the same molecule, the IC50 – broadly, the midpoint of a concentration-inhibition curve – in assay [2] worked out at 3.4 nM; in assay [3], 0.52 nM.
With `CC(C)C[C@@H]1NC(=O)[C@@H](C)NC(=O)CN(C)C(=O)CC[C@H](C(=O)O)NC(=O)[C@@H](C)[C@H](C)NC(=O)[C@H](Cc2ccccc2)NC(=O)C[C@H](C(=O)O)NC1=O`, the figures for the IC50 in assay [4] and in assay [5] were 254000 nM and 900 nM, respectively.
